This is an account of results in US20210070748A1, “INHIBITORS OF BRUTONS TYROSINE KINASE” (Pharmacyclics LLC, priority 2015, published 2021).

What all share (type): biochemical
The target in one assay is T1, ITK (Homo sapiens, UniProt Q08881).
T1 sequence (Q08881 1-620): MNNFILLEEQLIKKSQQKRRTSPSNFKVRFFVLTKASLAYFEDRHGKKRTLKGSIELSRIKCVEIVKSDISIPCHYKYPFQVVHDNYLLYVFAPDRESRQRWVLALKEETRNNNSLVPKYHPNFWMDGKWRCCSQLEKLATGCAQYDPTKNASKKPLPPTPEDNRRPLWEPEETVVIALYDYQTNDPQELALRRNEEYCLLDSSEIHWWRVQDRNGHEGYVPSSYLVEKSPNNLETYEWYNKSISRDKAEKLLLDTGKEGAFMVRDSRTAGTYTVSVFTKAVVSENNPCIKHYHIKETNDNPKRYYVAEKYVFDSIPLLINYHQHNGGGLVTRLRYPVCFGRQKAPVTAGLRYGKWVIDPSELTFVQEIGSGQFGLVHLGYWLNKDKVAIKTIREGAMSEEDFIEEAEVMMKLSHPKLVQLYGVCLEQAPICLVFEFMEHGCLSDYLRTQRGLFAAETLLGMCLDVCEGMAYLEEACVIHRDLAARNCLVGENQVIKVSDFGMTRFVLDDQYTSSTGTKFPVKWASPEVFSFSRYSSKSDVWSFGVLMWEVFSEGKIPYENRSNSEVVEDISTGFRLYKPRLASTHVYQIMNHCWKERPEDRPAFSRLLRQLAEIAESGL
The experiment in a line: Inhibition of a panel of kinases, in vitro HotSpot kinase assay: ITK. The note with it: D-compounds panel data; 1 μM ATP. How it is done:
(§1) The degree of inhibition of a panel of kinases is determined using the in vitro HotSpot kinase assay (purified enzymes, ^33P-ATP, an appropriate substrate and 1 μM ATP).

The target in another assay is LCK (Homo sapiens, UniProt P06239). The experiment in a line: Inhibition of a panel of kinases, in vitro HotSpot kinase assay: LCK. The note with it: D-compounds panel data; 1 μM ATP; read-out: IC50 LCK.
The next assay has as its target SRC (Homo sapiens, UniProt P12931). Nature of the assay: Inhibition of a panel of kinases, in vitro HotSpot kinase assay: SRC. The note with it: D-compounds panel data; 1 μM ATP. The procedure: as §1
The next assay addresses EGFR (Homo sapiens, UniProt P00533). Nature of the assay: Inhibition of a panel of kinases, in vitro HotSpot kinase assay: EGFR. The note with it: D-compounds panel data; 1 μM ATP. How it is done:
as §1

A further assay addresses T2, TEC (Homo sapiens, UniProt P42680).
T2 sequence (P42680 1-631): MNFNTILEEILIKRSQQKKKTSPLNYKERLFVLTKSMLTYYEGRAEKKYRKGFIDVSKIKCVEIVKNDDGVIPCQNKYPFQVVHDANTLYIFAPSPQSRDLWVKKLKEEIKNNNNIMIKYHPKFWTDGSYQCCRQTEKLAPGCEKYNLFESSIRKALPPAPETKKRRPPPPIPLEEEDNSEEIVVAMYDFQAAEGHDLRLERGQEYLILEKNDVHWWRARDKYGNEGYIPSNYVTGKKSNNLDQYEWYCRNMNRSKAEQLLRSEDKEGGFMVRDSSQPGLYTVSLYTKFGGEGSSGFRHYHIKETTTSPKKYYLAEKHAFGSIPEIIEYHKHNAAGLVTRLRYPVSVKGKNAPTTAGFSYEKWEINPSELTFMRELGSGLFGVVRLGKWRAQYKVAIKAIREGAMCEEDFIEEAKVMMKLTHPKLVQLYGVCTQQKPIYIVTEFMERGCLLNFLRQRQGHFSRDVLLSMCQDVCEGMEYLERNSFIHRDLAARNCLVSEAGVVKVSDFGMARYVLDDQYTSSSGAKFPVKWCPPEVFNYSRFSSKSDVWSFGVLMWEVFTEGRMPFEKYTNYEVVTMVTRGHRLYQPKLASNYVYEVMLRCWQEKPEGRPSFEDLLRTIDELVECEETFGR
Nature of the assay: Inhibition of a panel of kinases, in vitro HotSpot kinase assay: TEC. The note with it: D-compounds panel data; 1 μM ATP. The procedure:
as §1

Chain of SRC (P12931 whole entry): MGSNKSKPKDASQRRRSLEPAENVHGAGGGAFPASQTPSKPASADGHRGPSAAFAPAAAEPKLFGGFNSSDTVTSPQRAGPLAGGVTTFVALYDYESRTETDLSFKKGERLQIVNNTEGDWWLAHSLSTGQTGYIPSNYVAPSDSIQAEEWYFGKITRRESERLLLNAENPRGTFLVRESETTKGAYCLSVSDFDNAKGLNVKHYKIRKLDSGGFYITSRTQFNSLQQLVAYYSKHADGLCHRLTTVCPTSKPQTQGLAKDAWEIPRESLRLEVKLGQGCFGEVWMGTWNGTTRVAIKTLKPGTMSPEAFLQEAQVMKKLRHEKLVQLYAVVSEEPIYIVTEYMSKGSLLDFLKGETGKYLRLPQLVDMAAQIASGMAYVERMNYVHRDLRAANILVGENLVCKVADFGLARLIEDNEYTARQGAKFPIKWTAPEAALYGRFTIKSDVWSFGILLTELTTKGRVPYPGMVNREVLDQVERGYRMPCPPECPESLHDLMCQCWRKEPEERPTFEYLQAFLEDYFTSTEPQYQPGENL
Chain of LCK (P06239 whole entry): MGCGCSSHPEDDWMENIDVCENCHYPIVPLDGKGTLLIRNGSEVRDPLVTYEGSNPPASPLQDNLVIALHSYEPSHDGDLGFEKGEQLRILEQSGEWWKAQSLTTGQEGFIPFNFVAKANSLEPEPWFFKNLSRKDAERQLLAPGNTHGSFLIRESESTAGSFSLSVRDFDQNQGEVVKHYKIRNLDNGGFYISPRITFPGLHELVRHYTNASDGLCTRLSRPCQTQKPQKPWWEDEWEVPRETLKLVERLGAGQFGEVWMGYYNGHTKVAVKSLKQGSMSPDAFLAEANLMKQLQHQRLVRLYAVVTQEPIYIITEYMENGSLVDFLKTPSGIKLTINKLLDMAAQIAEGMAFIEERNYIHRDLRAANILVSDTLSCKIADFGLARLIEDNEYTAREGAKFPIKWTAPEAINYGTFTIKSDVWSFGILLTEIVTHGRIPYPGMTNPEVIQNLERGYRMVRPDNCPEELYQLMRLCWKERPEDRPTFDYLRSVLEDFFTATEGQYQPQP
Chain of EGFR (P00533 25-1210): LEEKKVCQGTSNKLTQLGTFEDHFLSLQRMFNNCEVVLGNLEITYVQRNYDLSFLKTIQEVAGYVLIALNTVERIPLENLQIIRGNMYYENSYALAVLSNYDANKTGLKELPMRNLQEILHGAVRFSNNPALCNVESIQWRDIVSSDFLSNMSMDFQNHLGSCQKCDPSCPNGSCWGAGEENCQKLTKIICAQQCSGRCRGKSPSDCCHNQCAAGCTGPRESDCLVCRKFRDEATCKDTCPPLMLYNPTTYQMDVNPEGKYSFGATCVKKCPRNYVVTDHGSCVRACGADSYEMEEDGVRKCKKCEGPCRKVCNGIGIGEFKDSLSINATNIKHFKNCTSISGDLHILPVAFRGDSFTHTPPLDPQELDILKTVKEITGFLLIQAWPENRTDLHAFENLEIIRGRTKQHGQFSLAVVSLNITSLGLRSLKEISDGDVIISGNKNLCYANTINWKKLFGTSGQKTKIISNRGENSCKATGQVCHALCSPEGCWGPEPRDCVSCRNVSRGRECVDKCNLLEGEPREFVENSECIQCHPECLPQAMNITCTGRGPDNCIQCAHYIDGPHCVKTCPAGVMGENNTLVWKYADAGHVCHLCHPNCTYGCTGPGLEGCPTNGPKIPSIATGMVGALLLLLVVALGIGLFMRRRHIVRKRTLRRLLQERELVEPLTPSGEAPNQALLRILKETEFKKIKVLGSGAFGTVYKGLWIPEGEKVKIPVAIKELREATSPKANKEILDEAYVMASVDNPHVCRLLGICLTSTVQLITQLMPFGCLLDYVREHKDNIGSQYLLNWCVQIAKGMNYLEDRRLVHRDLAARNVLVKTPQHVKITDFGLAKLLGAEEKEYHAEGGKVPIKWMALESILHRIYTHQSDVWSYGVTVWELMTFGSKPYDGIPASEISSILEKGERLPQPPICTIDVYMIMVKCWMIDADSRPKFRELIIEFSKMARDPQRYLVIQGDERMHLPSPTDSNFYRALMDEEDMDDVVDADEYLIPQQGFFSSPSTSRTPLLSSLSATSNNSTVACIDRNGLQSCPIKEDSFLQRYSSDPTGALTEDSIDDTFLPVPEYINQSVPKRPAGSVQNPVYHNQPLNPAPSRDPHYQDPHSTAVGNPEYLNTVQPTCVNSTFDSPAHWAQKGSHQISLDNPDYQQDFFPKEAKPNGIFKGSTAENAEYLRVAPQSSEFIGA

As to `C[C@H]1CC[C@@H](NC(=O)c2ccc(C3CC3)cc2)CN1c1cnc(C(N)=O)c(Nc2cnn(C)c2)n1` [Example D-142, 5-[(2S,5R)-5-(4-cyclopropylbenzamido)-2-methylpiperidin-1-yl]-3-[(1-methyl-1H-pyrazol-4-yl)amino]pyrazine-2-carboxamide], the IC50 at ITK fell in the range of 1000 to 10000 nM; at LCK, 10 to 100 nM; on SRC, 10 to 100 nM; on EGFR it was 1000 to 10000 nM; on TEC, 10 to 100 nM.

Take `CNC(=O)N[C@@H]1CCCN(c2cnc(C(N)=O)c(Nc3cnn(C)c3)n2)[C@@H]1C` [Example D-109, 3-[(1-methyl-1H-pyrazol-4-yl)amino]-5-[(2R,3R)-2-methyl-3-[(methylcarbamoyl)amino]piperidin-1-yl]pyrazine-2-carboxamide]: the IC50 against ITK fell in the range of 100 to 1000 nM; on LCK, 100 to 1000 nM; on SRC it was 100 to 1000 nM; against EGFR, 1000 to 10000 nM; against TEC it was 10 to 100 nM.

For the molecule `C[C@@H]1[C@H](NC(=O)c2ccc(C3CC3)cc2)CCCN1c1cnc(C(N)=O)c(Nc2ccc(N3CCN(CC(F)(F)F)CC3)cc2)n1` [Example D-97, 5-[(2R,3R)-3-(4-cyclopropylbenzamido)-2-methylpiperidin-1-yl]-3-({4-[4-(2,2,2-trifluoroethyl)piperazin-1-yl]phenyl}amino)pyrazine-2-carboxamide], the IC50 on ITK was 1000 to 10000 nM; on LCK it was more than 10000 nM; against SRC, 100 to 1000 nM; on EGFR, more than 10000 nM; against TEC, 10 to 100 nM.

Take `C[C@@H]1[C@H](NC(=O)N(C)C)CCCN1c1cnc(C(N)=O)c(Nc2ccc(C(=O)N3CCN(C)CC3)cc2)n1` [Example D-110, 5-[(2R,3R)-3-[(dimethylcarbamoyl)amino]-2-methylpiperidin-1-yl]-3-{[4-(4-methylpiperazine-1-carbonyl)phenyl]amino}pyrazine-2-carboxamide]: the IC50 on ITK fell in the range of 1000 to 10000 nM; at LCK, 100 to 1000 nM; on SRC, 100 to 1000 nM; at EGFR, 1000 to 10000 nM; at TEC, 100 to 1000 nM.

With `C[C@@H]1[C@H](NC(=O)N(C)C)CCCN1c1cnc(C(N)=O)c(Nc2ccc(OC3CCN(C4CCCC4)CC3)cc2)n1` [Example D-102, 3-({4-[(1-cyclopentylpiperidin-4-yl)oxy]phenyl}amino)-5-[(2R,3R)-3-[(dimethylcarbamoyl)amino]-2-methylpiperidin-1-yl]pyrazine-2-carboxamide], the IC50 lay in the range of 10 to 100 nM against ITK; 10 to 100 nM at LCK; 10 to 100 nM on SRC; 100 to 1000 nM at EGFR; 10 to 100 nM against TEC.

In the case of `C[C@H]1CC[C@@H](NC(=O)c2ccc(C(C)(C)O)cc2)CN1c1nnc(C(N)=O)c(Nc2cnn(C)c2)n1` [Example D-157, 3-[(2S,5R)-5-[4-(2-hydroxypropan-2-yl)benzamido]-2-methylpiperidin-1-yl]-5-[(1-methyl-1H-pyrazol-4-yl)amino]-1,2,4-triazine-6-carboxamide], the IC50 against ITK was 10 to 100 nM; on LCK it was 10 to 100 nM; on SRC, 10 to 100 nM; on EGFR, 1000 to 10000 nM; on TEC, not above 10 nM.

With `Cc1cccc(-c2cnc(C3CCCN(c4cnc(C(N)=O)c(Nc5cnn(C)c5)n4)C3)[nH]2)c1` [Example D-148, 3-[(1-methyl-1H-pyrazol-4-yl)amino]-5-{3-[5-(3-methylphenyl)-1H-imidazol-2-yl]piperidin-1-yl}pyrazine-2-carboxamide], the 50% inhibitory concentration (IC50) was 1000 to 10000 nM against ITK; 100 to 1000 nM on LCK; 100 to 1000 nM against SRC; 1000 to 10000 nM at EGFR; 100 to 1000 nM against TEC.

With `C[C@@H]1CC[C@H](NC(=O)N(C)C)CN1c1cnc(C(N)=O)c(Nc2cnn(C)c2)n1` [Example D-151, 5-[(2R,5S)-5-[(dimethylcarbamoyl)amino]-2-methylpiperidin-1-yl]-3-[(1-methyl-1H-pyrazol-4-yl)amino]pyrazine-2-carboxamide], the IC50 at ITK lay in the range of 1000 to 10000 nM; on LCK, 10 to 100 nM; against SRC it was 100 to 1000 nM; on EGFR it was 1000 to 10000 nM; at TEC it was 10 to 100 nM.

For the molecule `C[C@@H]1[C@H](NC(=O)c2ccc(C3CC3)cc2F)CCCN1c1cnc(C(N)=O)c(Nc2ccc(N3CCN(C)CC3)cc2)c1` [Example D-126, 5-[(2R,3R)-3-(4-cyclopropyl-2-fluorobenzamido)-2-methylpiperidin-1-yl]-3-{[4-(4-methylpiperazin-1-yl)phenyl]amino}pyridine-2-carboxamide], the IC50 against ITK was 1000 to 10000 nM; on LCK, 100 to 1000 nM; at SRC it was 100 to 1000 nM; against EGFR, more than 10000 nM; on TEC, 1000 to 10000 nM.

`C[C@@H]1[C@H](NC(=O)N(C)C)CCCN1c1cnc(C(N)=O)c(Nc2ccc(N3CCN(C)CC3)cc2)n1` [Example D-111, 5-[(2R,3R)-3-[(dimethylcarbamoyl)amino]-2-methylpiperidin-1-yl]-3-{[4-(4-methylpiperazin-1-yl)phenyl]amino}pyrazine-2-carboxamide]: the IC50 was 100 to 1000 nM at ITK; 100 to 1000 nM on LCK; 10 to 100 nM against SRC; 100 to 1000 nM at EGFR; 100 to 1000 nM against TEC.

Take `CN(C)c1ccc2c(c1)CCN([C@@H]1CCCN(c3cnc(C(N)=O)c(Nc4cnn(C)c4)n3)C1)C2=O` [Example D-156, 5-[(3R)-3-[6-(dimethylamino)-1-oxo-1,2,3,4-tetrahydroisoquinolin-2-yl]piperidin-1-yl]-3-[(1-methyl-1H-pyrazol-4-yl)amino]pyrazine-2-carboxamide]: the IC50 at ITK was 100 to 1000 nM; at LCK, 1000 to 10000 nM; at SRC, 100 to 1000 nM; on EGFR it was more than 10000 nM; against TEC, 10 to 100 nM.

Regarding `C[C@@H]1[C@H](NC(=O)Nc2cccnc2)CCCN1c1cnc(C(N)=O)c(Nc2ccc(C3(C)CCN(C4CCCC4)CC3)cc2)n1` [Example D-9, 3-{[4-(1-cyclopentyl-4-methylpiperidin-4-yl)phenyl]amino}-5-[(2R,3R)-2-methyl-3-{[(pyridin-3-yl)carbamoyl]amino}piperidin-1-yl]pyrazine-2-carboxamide], the half-maximal inhibitory concentration (IC50) is not above 10 nM at ITK; less than 10 nM at LCK; not above 10 nM on SRC; 10 to 100 nM on EGFR; 10 to 100 nM on TEC.

For the molecule `C[C@@H]1[C@H](NC(=O)c2ccc(C3CC3)cc2)CCCN1c1cnc(C(N)=O)c(Nc2ccc(N3CCC4(CC3)COC4)cc2)n1` [Example D-99, 5-[(2R,3R)-3-(4-cyclopropylbenzamido)-2-methylpiperidin-1-yl]-3-[(4-{2-oxa-7-azaspiro[3.5]nonan-7-yl}phenyl)amino]pyrazine-2-carboxamide], the IC50 at ITK is 100 to 1000 nM; on LCK it was 100 to 1000 nM; against SRC it was 100 to 1000 nM; against EGFR, 1000 to 10000 nM; against TEC it was not above 10 nM.

In the case of `C[C@@H]1[C@H](NC(=O)c2ccc(C3CC3)cc2F)CCCN1c1cnc(C(N)=O)c(Nc2ccc(CN3CCN(C)CC3)cn2)n1` [Example D-132, 5-[(2R,3R)-3-(4-cyclopropyl-2-fluorobenzamido)-2-methylpiperidin-1-yl]-3-({5-[(4-methylpiperazin-1-yl)methyl]pyridin-2-yl}amino)pyrazine-2-carboxamide], the IC50 against ITK was 1000 to 10000 nM; on LCK it was 1000 to 10000 nM; at SRC, more than 10000 nM; on EGFR it was more than 10000 nM; against TEC, 1000 to 10000 nM.

One may read the IC50 as the concentration at which inhibition is half-maximal.
